# Assay results reported in US10988458B2, “Apoptosis signal-regulating kinase 1 inhibitors and methods of use thereof” (Enanta Pharmaceuticals, Inc., priority 2017, dated 2021).
# Target: ASK1 kinase (Homo sapiens (Human), UniProt Q99683)
# Assay: ASK1 kinase inhibition, HTRF KinEASE-STK TR-FRET assay
# Assay type: biochemical
# Details: 5 nM ASK1, 1 uM STK3 peptide substrate, 100 uM ATP, 3 hours
# Procedure: The ability (IC50) of compounds to inhibit ASK1 kinase activity was determined by HTRF® KinEASE™ Assay System.
# ASK1 was purchased from Thermofisher (Catalogue #PV4011), ATP was purchased from Sigma (Catalogue #A7699), HTRF® KinEASE™ Assay System was obtained from Cisbio (Bedford, Mass.). ½ Area plate was purchased from Perkin Elmer (Catalogue ##6005560). HTRF® KinEASE™-STK is a generic method for measuring serine/threonine kinase activities using a time-resolved fluorescence resonance energy transfer (TR-FRET) immunoassay. The IC50 value for each compound was determined in the presence of compound (various concentration from 0 to 10 μM) and a fixed amount of ATP and peptide substrates. The test compound, 1 uM STK3 peptide substrate, and 5 nM of ASK1 kinase are incubated with kinase reaction buffer containing 50 mM HEPES pH 7.5, 0.01% BRIJ-35, 10 mM MgCl2, and 1 mM EGTA for 30 minutes. 100 uM ATP is added to start kinase reaction and incubated for 3 hours. The STK3-antibody labeled with Eu^3+-Cryptate and 125 nM streptavidin-XL665 are mixed in a single addition with stop reagents provided by the Cisbio kit used to stop the kinase reaction. Fluorescence is detected using an Envision Multilabeled 2014 reader from PerkinElmer. The Fluorescence is measured at 615 nm (Cryptate) and 665 nm (XL665) and a ratio of 665 nm/615 nm is calculated for each well. The resulting TR-FRET is proportional to the phosphorylation level. Staurosporine was used as the positive control. IC50 was determined by XLfit 5.3.
# By using above method, the inhibition of ASK1 was tested for the compound of formula (I). IC50 ranges are as follows: A<1 nM; 1 nM B<10 nM; 10 nM<C<100 nM; 100 nM<D<1 μM; […].
# ASK1 kinase, sequence (Q99683 whole entry): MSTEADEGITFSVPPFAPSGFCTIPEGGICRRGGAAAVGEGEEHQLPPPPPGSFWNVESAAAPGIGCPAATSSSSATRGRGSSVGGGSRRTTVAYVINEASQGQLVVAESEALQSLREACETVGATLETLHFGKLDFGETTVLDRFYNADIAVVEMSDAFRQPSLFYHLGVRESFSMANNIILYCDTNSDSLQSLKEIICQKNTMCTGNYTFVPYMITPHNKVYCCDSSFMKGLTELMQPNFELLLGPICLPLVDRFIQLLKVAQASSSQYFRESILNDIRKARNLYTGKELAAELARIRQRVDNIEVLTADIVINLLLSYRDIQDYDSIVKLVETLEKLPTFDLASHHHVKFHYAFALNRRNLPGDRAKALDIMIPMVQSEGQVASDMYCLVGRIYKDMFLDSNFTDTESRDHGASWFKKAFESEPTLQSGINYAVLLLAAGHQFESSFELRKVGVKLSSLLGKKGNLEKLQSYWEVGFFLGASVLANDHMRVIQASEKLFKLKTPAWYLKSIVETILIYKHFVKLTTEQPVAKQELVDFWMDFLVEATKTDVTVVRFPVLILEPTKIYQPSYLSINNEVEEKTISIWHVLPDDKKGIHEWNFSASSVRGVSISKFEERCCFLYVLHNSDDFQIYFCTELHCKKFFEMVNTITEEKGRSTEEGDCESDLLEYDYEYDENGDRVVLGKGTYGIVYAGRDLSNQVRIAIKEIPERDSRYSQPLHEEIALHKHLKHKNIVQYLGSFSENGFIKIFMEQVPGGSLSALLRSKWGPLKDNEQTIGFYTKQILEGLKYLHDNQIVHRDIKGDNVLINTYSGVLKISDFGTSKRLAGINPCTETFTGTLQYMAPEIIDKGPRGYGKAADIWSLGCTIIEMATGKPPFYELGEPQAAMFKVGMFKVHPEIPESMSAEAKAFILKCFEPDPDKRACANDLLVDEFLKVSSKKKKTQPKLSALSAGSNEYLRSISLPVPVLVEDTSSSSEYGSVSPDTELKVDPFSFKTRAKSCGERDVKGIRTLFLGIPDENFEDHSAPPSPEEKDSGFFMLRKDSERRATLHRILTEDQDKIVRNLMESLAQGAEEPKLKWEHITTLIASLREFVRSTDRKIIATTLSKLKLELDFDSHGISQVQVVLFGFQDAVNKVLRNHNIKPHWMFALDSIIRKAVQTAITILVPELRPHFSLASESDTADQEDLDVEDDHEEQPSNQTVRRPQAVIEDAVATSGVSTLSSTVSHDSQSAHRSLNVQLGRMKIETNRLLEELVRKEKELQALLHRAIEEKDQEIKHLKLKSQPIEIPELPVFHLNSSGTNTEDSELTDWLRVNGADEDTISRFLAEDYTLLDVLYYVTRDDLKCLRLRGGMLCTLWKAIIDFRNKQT
row,IC50 [nM],SMILES
1,> 1000,"Cc1cc(F)c(C(=O)Nc2cccc(-n3cnnc3C(C)C)n2)cc1-n1cnc(C2CC2)c1 [Example 1c, 5-(4-cyclopropyl-1H-imidazol-1-yl)-2-fluoro-N-(6-(3-isopropyl-4H-1,2,4-triazol-4-yl)pyridin-2-yl)-4-methylbenzamide]"
2,100 to 1000,Cc1cc(F)c(C(=O)Nc2cccc(-n3nnnc3C(C)C)n2)cc1-n1cnc(C(F)(F)F)c1 [Example 2b]
3,100 to 1000,"CC(=O)OC[C@@H](C)n1nnnc1-c1cccc(NC(=O)c2cc(-n3cnc(C4CC4)c3)c(C)cc2F)n1 [Example 6a, (R)-2-(5-(6-(5-(4-cyclopropyl-1H-imidazol-1-yl)-2-fluoro-4-methyl-benzamido)pyridin-2-yl)-1H-tetrazol-1-yl)propyl acetate]"
4,100 to 1000,Cc1cc(F)c(C(=O)Nc2cccc(-c3nnnn3C(C)C(=O)O)n2)cc1-n1cnc(C2CC2)c1 (centres unmarked) [Example 19a]
5,> 1000,Cc1cc(F)c(C(=O)Nc2ccnc(-c3nnn[nH]3)n2)cc1-n1cnc(C2CC2)c1 [Example 36a]
